From US20250122202A1, “EGFR INHIBITOR, PREPARATION METHOD THEREFOR AND USE THEREOF” (SHANDONG NEW TIME PHARMACEUTICAL CO., LTD., priority 2021, published 2025)
Read-outs that look alike come from different tables or passages of the source.

Assays:
[1] = molecular target: EGFR D770-N771 ins NPG kinase (Homo sapiens (Human), UniProt P00533, INS770NPG); test: In-vitro enzyme experiment 1 (HTRF kinase assay), D770-N771 ins NPG kinase; type: biochemical
[2] = tested on: KC-1362 BaF3-EGFR D770-N771 ins NPG cells; test: Anti-proliferative activity on KC-1362 BaF3-EGFR D770-N771 ins NPG cells; type: cell-based; conditions: Ba/F3 EGFR
[3] = molecular target: EGFR-Del19/T790M/C797S kinase (Homo sapiens, UniProt P00533, C797S/T790M, form not given); test: In-vitro enzyme experiment 2 (HTRF kinase assay), EGFR Del19 T790M C797S; type: biochemical; conditions: read-out: enzyme inhibition IC50 (nM) EGFR-Del19/T790M/C797S
Description: The specific experiment was as follows: • 1. […] Test method of activity of compound • a) a compound diluent was transferred to each well of an assay plate (784075, Greiner) using Echo 550; • b) the assay plate was sealed and centrifuged at 1,000 g for 1 min; • c) 2×EGFR (D770-N771 ins NPG T790M) was prepared in a 1× kinase buffer; • d) 5 μl of the 2×EGFR (D770-N771 ins NPG T790M) was added to a 384-well assay plate (784075, Greiner); • e) the assay plate was centrifuged at 1,000 g for 30 s and incubated at room temperature for 10 min; • f) 2× TK-substrate-biotin (2 μM) and ATP were added to the 1× kinase buffer and mixed; • g) the reaction was started after adding 5 μl of the TK-substrate-biotin (2 μM) and ATP mixture; • h) the assay plate was centrifuged at 1,000 g for 30 s; and the assay plate was sealed and incubated at room temperature for 40 min; • i) 4× Sa-XL 665 was prepared in an HTRF detection buffer; • j) 5 μl of the Sa-XL 665 and 5 μl of a TK-antibody-cryptate were added to each well of the assay plate; • k) the assay plate was centrifuged at 1,000 g for 30 s and incubated at room temperature for 1 h; and • l) fluorescence signals at 615 nm (cryptate) and 665 nm (XL665) were read on an Envision 2104 reader. • 3. Data analysis • 3.1 Calculation of ratio (665/615 nm) of each well • 3.2 Calculation of inhibition rate
(§1) [formula] • 3.3 Calculation of IC50 value of compound and drawing dose-effect curve of compound • IC50 values were calculated using GraphPad 6.0 by applying a non-linear regression curve (dose-effect relationship-variable slope) of the logarithm of the compound concentration versus the inhibition rate.
The preparation of the kinase buffer, the test method of the activity of the compound, and the data analysis referred to the relevant definitions in example 117, wherein step c) of the test method of the activity of the compound was replaced by preparing 2×EGFR Del19 T790M C797S in the 1× kinase buffer.

[4] = molecular target: EGFR (D770-N771 ins NPG T790M) kinase (Homo sapiens (Human), UniProt P00533, INS770NPG/T790M); test: In-vitro enzyme experiment 1 (HTRF kinase assay), EGFR D770-N771 ins NPG T790M; type: biochemical
Description: The specific experiment was as follows: • 1. Preparation of 1× concentration kinase buffer • 1 volume of 5 times concentration of an enzyme buffer diluted with 4 volumes of distilled water; 5 mM magnesium chloride; 1 mM DTT; and 1 mM MnCl2. • 2. Test method of activity of compound • a) a compound diluent was transferred to each well of an assay plate (784075, Greiner) using Echo 550; • b) the assay plate was sealed and centrifuged at 1,000 g for 1 min; • c) 2×EGFR (D770-N771 ins NPG T790M) was prepared in a 1× kinase buffer; • d) 5 μl of the 2×EGFR (D770-N771 ins NPG T790M) was added to a 384-well assay plate (784075, Greiner); • e) the assay plate was centrifuged at 1,000 g for 30 s and incubated at room temperature for 10 min; • f) 2× TK-substrate-biotin (2 μM) and ATP were added to the 1× kinase buffer and mixed; • g) the reaction was started after adding 5 μl of the TK-substrate-biotin (2 μM) and ATP mixture; • h) the assay plate was centrifuged at 1,000 g for 30 s; and the assay plate was sealed and incubated at room temperature for 40 min; • i) 4× Sa-XL 665 was prepared in an HTRF detection buffer; • j) 5 μl of the Sa-XL 665 and 5 μl of a TK-antibody-cryptate were added to each well of the assay plate; • k) the assay plate was centrifuged at 1,000 g for 30 s and incubated at room temperature for 1 h; and • l) fluorescence signals at 615 nm (cryptate) and 665 nm (XL665) were read on an Envision 2104 reader. • 3. Data analysis • 3.1 Calculation of ratio (665/615 nm) of each well • 3.2 Calculation of inhibition rate
as §1
Y=lowest value+(highest value−lowest value)/(1+10^((Log IC50−X)×slope)) • X: logarithm of inhibitor concentration; and Y: inhibition rate. • 3.4 Double test report • 3.4.1 After one tester completed a report, another tester again checked the report to ensure that data analysis was correct. • 3.4.2 The data was exported from the software and manually analyzed. • 3.4.2.1 The rate was converted into the inhibition rate. All the IC50 values were first calculated with the inhibition rate using Prism GraphPad 6.0. • 3.4.2.2 Then the IC50 value was recalculated using the ratio to check the accuracy of the analysis. • 3.4.3 The number of all the compounds was ensured to be correct.

A549 EGFR-WT = test: Cell proliferation inhibition experiment (CCK-8), A549; conditions: Homo sapiens, A549, 72 h, read-out: cell proliferation inhibition IC50 (μM) A549, 72 h, CCK-8
[5] = tested on: KC-1474:PC-9 EGFR-Del19/T790M/C797S; test: Cell proliferation inhibition experiment (CCK-8), KC-1474; type: cell-based; conditions: Homo sapiens, 72 h
From the text: (§2) Inhibition rate %=[(A0−AS)/(A0−AC)]×100%.

HCC827 EGFR-Del19 = test: Cell proliferation inhibition experiment (CCK-8), HCC827; type: cell-based; conditions: Homo sapiens, 72 h
From the text: as §2

PC-9 EGFR-Del19 = test: Cell proliferation inhibition experiment (CCK-8), PC-9; type: cell-based; conditions: Homo sapiens, 72 h
From the text: as §2

[6] = tested on: KC-0178:NCI-1975 EGFR-L858R/T790M/C797S; test: Cell proliferation inhibition experiment (CCK-8), KC-0178; type: cell-based; conditions: Homo sapiens, 72 h
From the text: as §2

H1975 EGFR-L858R/T790M = test: Cell proliferation inhibition experiment (CCK-8), H1975; type: cell-based; conditions: Homo sapiens, NCI-H1975, 72 h
From the text: as §2

EGFR-Del19/T790M/C797S kinase, sequence (P00533 25-1210 T790M/C797S limits assumed, form open): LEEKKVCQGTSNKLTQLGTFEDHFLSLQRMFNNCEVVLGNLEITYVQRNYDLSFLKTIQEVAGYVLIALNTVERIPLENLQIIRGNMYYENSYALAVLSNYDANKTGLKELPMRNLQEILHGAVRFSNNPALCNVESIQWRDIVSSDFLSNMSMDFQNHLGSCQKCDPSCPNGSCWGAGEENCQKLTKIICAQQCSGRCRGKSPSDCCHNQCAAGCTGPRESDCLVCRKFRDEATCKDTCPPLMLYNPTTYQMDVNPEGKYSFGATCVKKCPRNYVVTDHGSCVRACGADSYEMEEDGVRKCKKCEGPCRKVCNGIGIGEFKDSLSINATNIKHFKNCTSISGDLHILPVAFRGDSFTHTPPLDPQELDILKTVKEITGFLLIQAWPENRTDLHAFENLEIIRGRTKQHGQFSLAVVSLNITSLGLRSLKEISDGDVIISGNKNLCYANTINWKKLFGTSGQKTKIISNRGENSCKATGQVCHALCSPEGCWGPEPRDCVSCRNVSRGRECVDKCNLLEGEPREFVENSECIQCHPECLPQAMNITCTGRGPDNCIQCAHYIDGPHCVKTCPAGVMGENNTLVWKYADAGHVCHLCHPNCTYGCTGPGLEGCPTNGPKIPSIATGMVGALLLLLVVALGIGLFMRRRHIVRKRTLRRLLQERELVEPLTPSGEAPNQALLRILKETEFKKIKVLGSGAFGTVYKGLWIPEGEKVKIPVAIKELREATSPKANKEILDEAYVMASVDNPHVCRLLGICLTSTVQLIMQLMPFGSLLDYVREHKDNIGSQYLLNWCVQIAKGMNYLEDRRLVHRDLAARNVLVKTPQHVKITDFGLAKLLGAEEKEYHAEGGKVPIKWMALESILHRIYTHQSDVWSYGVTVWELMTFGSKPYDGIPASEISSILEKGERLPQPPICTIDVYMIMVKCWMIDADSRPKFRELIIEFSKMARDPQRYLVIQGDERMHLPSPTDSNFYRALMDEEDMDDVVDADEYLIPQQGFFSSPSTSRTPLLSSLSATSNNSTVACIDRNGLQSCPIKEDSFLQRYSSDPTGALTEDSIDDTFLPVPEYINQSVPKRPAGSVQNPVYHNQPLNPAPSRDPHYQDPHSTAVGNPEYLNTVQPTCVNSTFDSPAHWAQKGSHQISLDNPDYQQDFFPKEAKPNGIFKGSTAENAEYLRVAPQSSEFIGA
EGFR D770-N771 ins NPG kinase, sequence (P00533 other isoform, or with tags, fused parts or gaps del 1-668/ins NPG behind 770 limits assumed): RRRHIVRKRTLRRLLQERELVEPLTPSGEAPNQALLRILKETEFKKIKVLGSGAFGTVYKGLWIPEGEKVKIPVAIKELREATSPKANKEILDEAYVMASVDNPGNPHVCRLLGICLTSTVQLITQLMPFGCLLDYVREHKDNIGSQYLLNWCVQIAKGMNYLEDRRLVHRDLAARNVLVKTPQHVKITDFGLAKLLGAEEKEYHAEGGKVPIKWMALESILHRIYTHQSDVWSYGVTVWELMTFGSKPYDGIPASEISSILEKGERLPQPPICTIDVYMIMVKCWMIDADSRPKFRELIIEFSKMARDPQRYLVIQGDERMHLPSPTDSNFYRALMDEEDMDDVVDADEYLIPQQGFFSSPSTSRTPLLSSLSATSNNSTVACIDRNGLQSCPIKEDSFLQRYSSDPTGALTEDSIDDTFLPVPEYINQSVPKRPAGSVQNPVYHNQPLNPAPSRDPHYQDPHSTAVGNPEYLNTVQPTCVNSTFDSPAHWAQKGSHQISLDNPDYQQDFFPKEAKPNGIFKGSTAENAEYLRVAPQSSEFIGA
EGFR (D770-N771 ins NPG T790M) kinase, sequence (P00533 other isoform, or with tags, fused parts or gaps T790M/del 1-668/ins NPG behind 770 limits assumed): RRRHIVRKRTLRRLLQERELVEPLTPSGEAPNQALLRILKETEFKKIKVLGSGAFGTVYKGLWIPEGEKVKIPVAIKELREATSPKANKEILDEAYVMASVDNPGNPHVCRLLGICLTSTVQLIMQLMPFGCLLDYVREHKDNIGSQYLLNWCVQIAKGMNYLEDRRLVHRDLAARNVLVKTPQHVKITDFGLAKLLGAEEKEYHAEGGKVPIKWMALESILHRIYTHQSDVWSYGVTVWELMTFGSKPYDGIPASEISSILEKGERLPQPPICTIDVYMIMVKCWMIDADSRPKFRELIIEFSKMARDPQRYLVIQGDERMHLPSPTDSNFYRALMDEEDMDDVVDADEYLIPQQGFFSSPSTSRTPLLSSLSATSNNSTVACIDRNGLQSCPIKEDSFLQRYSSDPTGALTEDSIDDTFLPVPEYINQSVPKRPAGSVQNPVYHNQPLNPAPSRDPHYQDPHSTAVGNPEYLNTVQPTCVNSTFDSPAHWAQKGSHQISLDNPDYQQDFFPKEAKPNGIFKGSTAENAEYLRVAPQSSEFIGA

| SMILES | IC50 [1] [nM] | IC50 [2] [nM] | IC50 [3] [nM] | IC50 [4] [nM] | IC50 (A549 EGFR-WT; Table 5 numeric) [µM] | IC50 [5] [µM] | IC50 (HCC827 EGFR-Del19) [µM] | IC50 (PC-9 EGFR-Del19) [µM] | IC50 (A549 EGFR-WT) [µM] | IC50 [6] [µM] | IC50 (H1975 EGFR-L858R/T790M) [µM] |
| --- | --- | --- | --- | --- | --- | --- | --- | --- | --- | --- | --- |
| CN1CCN(c2ccc(Nc3nc(NC4CC5(COC5)C4)c4c(C(=O)c5ccc(F)cc5)c[nH]c4n3)cc2)CC1 [Example 18] | 28.2 | 150 | 10 to 100 | – | – | – | – | – | – | – | – |
| C=CC(=O)N1CC[C@@H](Nc2nc(Nc3ccc(N4CCN(C)CC4)cc3)nc3[nH]cc(C(=O)c4ccc(F)cc4)c23)C1 [Example 26] | 3.52 | 150 | – | 6.31 | 0.52 | – | – | – | – | – | – |
| CN1CCN(c2ccc(Nc3nc(NC4CCOCC4)c4c(C(=O)c5ccc(F)cc5)c[nH]c4n3)cc2)CC1 [Example 40] | – | – | – | – | 0.23 | < 0.1 | 0.1 to 1 | 0.1 to 1 | 0.1 to 1 | – | – |
| CN1CCN(c2ccc(Nc3nc(N[C@H]4CC[C@H](CO)CC4)c4c(C(=O)c5ccc(F)cc5)c[nH]c4n3)cc2)CC1 [Example 42] | 4.44 | 35 | – | – | – | < 0.1 | 0.1 to 1 | < 0.1 | 1 to 2 | 1 to 2 | 0.1 to 1 |
| CN1CCN(c2ccc(Nc3nc(NC4CCCCC4O)c4c(C(=O)c5ccc(F)cc5)c[nH]c4n3)cc2)CC1 (centres unmarked) [Example 43] | – | – | 100 to 600 | – | – | – | 0.1 to 1 | 0.1 to 1 | – | – | 0.1 to 1 |
| C=CC(=O)N1CC[C@H](Nc2nc(Nc3ccc(N4CCN(C)CC4)cc3)nc3[nH]cc(C(=O)c4ccccc4F)c23)C1 [Example 46] | – | – | – | – | – | – | 0.1 to 1 | < 0.1 | – | – | < 0.1 |
| CN1CCN(c2ccc(Nc3nc(NC4CCN(S(C)(=O)=O)CC4)c4c(C(=O)c5ccc(F)cc5)c[nH]c4n3)cc2)CC1 [Example 64] | 24.2 | 200 | 100 to 600 | 93.6 | – | – | – | – | – | – | – |
| CN1CCN(c2ccc(Nc3nc(NC45CC6CC(CC(O)(C6)C4)C5)c4c(C(=O)c5ccc(F)cc5)c[nH]c4n3)cc2)CC1 [Example 70] | 6.55 | 54 | 10 to 100 | – | – | – | – | – | – | – | – |
| CN1CCN(c2ccc(Nc3nc(NC45CC6CC(C4)C(O)C(C6)C5)c4c(C(=O)c5ccc(F)cc5)c[nH]c4n3)cc2)CC1 (centres unmarked) [Example 71] | 4.54 | 70 | 10 to 100 | 9.27 | – | – | – | – | – | – | – |
| O=C(c1ccc(F)cc1)c1c[nH]c2nc(Nc3ccc(N4CCOCC4)cc3)nc(N[C@H]3CC[C@H](CO)CC3)c12 [Example 79] | – | – | – | – | – | – | < 0.1 | 0.1 to 1 | 0.1 to 1 | < 0.1 | 0.1 to 1 |
| O=C(c1cccc(F)c1)c1c[nH]c2nc(Nc3ccc(N4CCOCC4)cc3)nc(N[C@H]3CC[C@H](CO)CC3)c12 [Example 92] | – | – | – | – | 0.07 | – | < 0.1 | 0.1 to 1 | – | – | < 0.1 |
| CCN1CCN(c2ccc(Nc3nc(N[C@H]4CC[C@@H](CO)CC4)c4c(C(=O)c5ccc(F)cc5)c[nH]c4n3)cc2)CC1 [Example 104] | 2.72 | 160 | < 10 | 11.4 | – | < 0.1 | – | < 0.1 | – | 0.1 to 1 | < 0.1 |
| C=CC(=O)N1CC[C@@H](Nc2nc(Nc3cnn(C)c3)nc3[nH]cc(C(=O)c4ccc(F)cc4)c23)C1 [Example 109] | 3 | 120 | – | 7.27 | – | – | 0.1 to 1 | < 0.1 | 0.1 to 1 | – | 0.1 to 1 |
| Cn1cc(Nc2nc(N[C@H]3CC[C@H](CO)CC3)c3c(C(=O)c4ccc(F)cc4)c[nH]c3n2)cn1 [Example 110] | – | – | 10 to 100 | – | – | 0.1 to 1 | < 0.1 | < 0.1 | 0.1 to 1 | < 0.1 | – |
| Cn1cc(Nc2nc(N[C@H]3CC[C@@H](CO)CC3)c3c(C(=O)c4ccc(F)cc4)c[nH]c3n2)cn1 [Example 114] | 4.12 | 160 | < 10 | 18.2 | – | < 0.1 | – | < 0.1 | 0.1 to 1 | 0.1 to 1 | < 0.1 |
| CN1CCC(n2cc(Nc3nc(N[C@H]4CC[C@@H](CO)CC4)c4c(C(=O)c5ccc(F)cc5)c[nH]c4n3)cn2)CC1 [Example 115] | 2.46 | 560 | < 10 | 8.16 | – | 0.1 to 1 | – | 0.1 to 1 | 1 to 2 | 1 to 2 | 0.1 to 1 |
| COc1nn(C)cc1Nc1nc(N[C@H]2CC[C@@H](CO)CC2)c2c(C(=O)c3ccc(F)cc3)c[nH]c2n1 [Example 116] | – | – | 10 to 100 | – | – | 0.1 to 1 | – | < 0.1 | 1 to 2 | 1 to 2 | 0.1 to 1 |
